According to ChEMBL document CHEMBL1201862, “PubChem BioAssay data set” (2004):
Activity calls are given as the source filed them.

Tests used:
[1] = biological target: Luciferin 4-monooxygenase (Photinus pyralis, UniProt P08659); assay: firefly luciferase enzyme inhibitors, dose response, biochemical, luminescence (AID 1891)
[2] = Luminescence Cell-Based Dose Confirmation HTS to Identify Inhibitors of Platelet Dense Granule Release. [Related pubchem assays: 1663 (Primary HTS), 1678 (Summary of Project)]; type: functional
[3] = biological target: T1, Calpain-2 catalytic subunit (Sus scrofa, UniProt P43367); assay: pig calpain II inhibitor potency, dose response, biochemical, fluorogenic peptide substrate (AID 1420); type: functional
T1 sequence (P43367 whole entry): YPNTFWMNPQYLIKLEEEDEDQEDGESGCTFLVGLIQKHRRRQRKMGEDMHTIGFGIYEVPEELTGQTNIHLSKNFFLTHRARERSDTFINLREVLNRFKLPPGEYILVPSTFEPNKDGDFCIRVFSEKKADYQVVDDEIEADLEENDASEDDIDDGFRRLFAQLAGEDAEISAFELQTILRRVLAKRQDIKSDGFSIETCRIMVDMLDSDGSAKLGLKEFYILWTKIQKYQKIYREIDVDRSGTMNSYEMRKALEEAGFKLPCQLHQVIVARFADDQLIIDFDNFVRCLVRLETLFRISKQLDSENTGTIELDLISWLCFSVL

[4] = inhibitors of SNCA 5'UTR-driven reporter translation, confirmation, H4 neuroglioma cells, luminescence (AID 1988); type: functional, cell-based
[5] = HepG2 cell cytotoxicity, dose response, cytotoxicity control for Shn3 inhibitor project, CellTiter-Glo, cherry-picked (AID 624134); type: functional, cell-based
[6] = inhibitors of firefly luciferase expression or activity, dose response, H4 neuroglioma cells, luminescence (AID 1990); type: functional, cell-based
[7] = control 3'UTR Renilla luciferase suppression, dose response, counter-screen for Shn3 inhibitor project, cell-based, Clone20-Shn3RL, cherry-picked (AID 624133); type: functional
[8] = Luminescence Cell-Based Dose Response HTS to Identify Inhibitors of 5'UTR Stem-Loop Driven Prion Protein mRNA Translation in H4 Neuroglioblastoma Cells. [Related pubchem assays: 1827 (Project Summary), 1813 (Primary HTS)]; type: functional
[9] = Shn3 3'UTR reporter inhibitors, dose response, cell-based, Clone20 osteoblasts, firefly luciferase, cherry-picked (AID 624132); type: functional;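 note: firefly luciferase luminescence from reporter carrying the Shn3 3'UTR in osteoblasts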
[10] = Luminescence Cell-Based Dose Retest to Confirm Inhibitors of Cancer Stem Cells. [Related pubchem assays (depositor defined):AID2717, AID2721]; type: functional; conditions: Homo sapiens
[11] = biological target: T2, Rac GTPase-activating protein 1 (Homo sapiens, UniProt Q9H0H5); assay: MgcRacGAP GTPase-activating activity inhibitors, confirmation, biochemical, ADP Hunter fluorescence, primary and confirmatory (AID 624330); type: functional
T2 sequence (Q9H0H5 whole entry): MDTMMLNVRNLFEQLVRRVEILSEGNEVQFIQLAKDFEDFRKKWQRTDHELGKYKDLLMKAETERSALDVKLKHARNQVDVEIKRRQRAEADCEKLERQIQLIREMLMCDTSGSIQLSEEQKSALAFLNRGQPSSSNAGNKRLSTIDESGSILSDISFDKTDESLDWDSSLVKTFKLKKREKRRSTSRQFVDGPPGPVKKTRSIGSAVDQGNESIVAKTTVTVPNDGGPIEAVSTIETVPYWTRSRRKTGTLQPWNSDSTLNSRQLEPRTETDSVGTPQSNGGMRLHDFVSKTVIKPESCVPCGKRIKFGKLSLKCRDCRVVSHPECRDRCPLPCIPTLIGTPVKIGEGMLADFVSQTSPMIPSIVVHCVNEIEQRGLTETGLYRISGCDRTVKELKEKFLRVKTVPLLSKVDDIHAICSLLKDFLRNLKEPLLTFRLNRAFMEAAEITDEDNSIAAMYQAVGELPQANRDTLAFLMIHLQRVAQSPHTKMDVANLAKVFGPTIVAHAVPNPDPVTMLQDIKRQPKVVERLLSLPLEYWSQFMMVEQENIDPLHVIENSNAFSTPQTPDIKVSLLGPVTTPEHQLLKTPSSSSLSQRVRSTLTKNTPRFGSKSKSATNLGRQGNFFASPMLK

INS1 = assay: beta cell apoptosis inhibitors, cytokine rescue, dose response, luminescence, retest (AID 449756); type: functional, cell-based; conditions: Rattus norvegicus;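 note: cell death triggered by IL-1 beta plus TNF-alpha plus IFN-gamma mixture; protective hits raise ATP signal compared with cytokine alone wells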
Paired box protein Pax-8 = Paired box protein Pax-8 (Homo sapiens, UniProt Q06710); assay: inhibitors of PAX8-driven TPO luciferase reporter, dose response, RMG-I cells, cherry-pick (AID 687027); type: functional, cell-based;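 note: luciferase reporter driven by Pax8 target thyroperoxidase promoter measured by SteadyGlo luminescence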
Paired box protein Pax-8, sequence (Q06710 whole entry): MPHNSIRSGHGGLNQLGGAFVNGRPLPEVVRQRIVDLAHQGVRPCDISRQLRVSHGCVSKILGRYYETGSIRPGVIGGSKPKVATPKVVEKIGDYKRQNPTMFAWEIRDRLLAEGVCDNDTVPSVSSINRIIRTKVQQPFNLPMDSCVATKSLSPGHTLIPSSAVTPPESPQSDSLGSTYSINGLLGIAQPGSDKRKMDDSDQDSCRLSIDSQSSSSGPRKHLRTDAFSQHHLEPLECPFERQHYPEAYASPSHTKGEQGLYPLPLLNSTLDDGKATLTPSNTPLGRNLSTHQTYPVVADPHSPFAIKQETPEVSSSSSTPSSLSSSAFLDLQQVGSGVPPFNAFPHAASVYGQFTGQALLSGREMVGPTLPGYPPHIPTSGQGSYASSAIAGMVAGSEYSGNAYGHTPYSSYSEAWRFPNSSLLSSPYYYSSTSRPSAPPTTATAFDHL

[12] = cytotoxicity toward NIH3T3 fibroblasts, dose response, counter-screen, cell-based, ATP luminescence, mouse fibroblasts (AID 2010); type: functional;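 note: cells exposed to compound for about 90 hours before reading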
[13] = inhibitors of intracellular T. cruzi replication, confirmation, NIH3T3 host cells, beta-gal luminescence (AID 2044); type: functional, cell-based;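 note: intracellular parasites grown in NIH/3T3 mouse fibroblasts as host cells; luminescent beta-galactosidase reporter signal from transgenic T. cruzi replicating inside host cells; inhibitors lower the luminescence signal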
[14] = C. albicans growth with fluconazole, confirmation, fluorescence, retest (AID 2467); type: functional, cell-based
[15] = NIH-3T3 fibroblast cytotoxicity, dose response, cytotoxicity control, cell-based, fluorescence, Alamar Blue, secondary assay (AID 2327); type: functional;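 note: NIH-3T3 mouse fibroblasts cultured with fluconazole at 8 µg/mL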

Luciferin 4-monooxygenase, sequence (P08659 whole entry): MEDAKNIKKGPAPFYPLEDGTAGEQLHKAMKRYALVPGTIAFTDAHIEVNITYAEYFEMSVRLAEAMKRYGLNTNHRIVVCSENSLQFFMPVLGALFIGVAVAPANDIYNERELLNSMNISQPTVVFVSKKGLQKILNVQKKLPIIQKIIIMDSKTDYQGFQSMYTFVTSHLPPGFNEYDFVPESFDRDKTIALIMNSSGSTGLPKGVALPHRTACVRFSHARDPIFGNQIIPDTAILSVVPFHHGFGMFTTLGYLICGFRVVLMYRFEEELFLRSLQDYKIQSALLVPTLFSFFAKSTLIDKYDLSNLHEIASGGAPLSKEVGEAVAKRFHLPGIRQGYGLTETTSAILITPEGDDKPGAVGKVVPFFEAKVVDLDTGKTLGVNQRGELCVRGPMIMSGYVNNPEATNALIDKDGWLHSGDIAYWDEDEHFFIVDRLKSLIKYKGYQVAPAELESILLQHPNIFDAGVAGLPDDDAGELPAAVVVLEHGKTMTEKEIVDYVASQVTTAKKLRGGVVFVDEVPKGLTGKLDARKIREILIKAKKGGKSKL

## COC(=O)c1cc2n(n1)CCN(Cc1ccc(F)cc1)C2=O
[1]
  EC50: > 112 µM (not active)
[2]
  EC50: > 112 µM (not active)

## CC(C)NC(=S)N/N=C/c1ccc2c(c1)OCCO2
[3]
  IC50: > 50 µM (not active)

## C=CCn1c(SCC(=O)c2[nH]c(C)c(C(=O)OC)c2C)nc2scc(-c3ccc(OC)c(OC)c3)c2c1=O
[4]
  EC50: 5.89 µM (active)
[5]
  AC50: 41.2 µM (active)
[6]
  EC50: 6.33 µM (active)
[7]
  AC50: 24.8 µM (active)
[8]
  EC50: 8.16 µM (active)
[9]
  AC50: 2.01 µM (active)

## CCCCCCSc1ccc(-c2nc3ccccn3c2NCCCC)cc1
[10]
  AC50: 4.4 µM (active)

## CCN(/C=N/C1=NN(c2cccc(C(F)(F)F)c2)CC1)CC
[11]
  IC50: 32.9 µM (active)

## CC1N(O)C(c2ccc(Cl)cc2Cl)N(O)C1(C)C (stereo not drawn)
[1]
  EC50: > 112 µM (not active)
[2]
  EC50: > 112 µM (not active)

## CC(=O)Nc1cccc(NC(=O)C(=O)Nc2ccc3c(c2)N(C(=O)C2CC2)CCC3)c1
[1]
  EC50: 31 µM (active)
[2]
  EC50: > 112 µM (not active)

## O=C(CNCc1cccs1)Nc1ccc(N2CCCCCC2)cc1
[11]
  IC50: 107 µM (active)

## COc1ccc(/C=N/Nc2nn3cnnc3c3ccccc23)cc1
[3]
  IC50: 5.99 µM (not active)

## C=CCCc1ccc(C#N)c(SCc2c(C(=O)OCC)c3cc(OC(C)=O)c(Br)cc3n2C)n1
[5]
  AC50: 9.37 µM (active)
[7]
  AC50: 2.75 µM (active)
INS1
  AC50: 1.14 µM (active)

## Cc1ccccc1OCCn1cc(C(=S)N2CCCC2)c2ccccc21
[5]
  AC50: > 70 µM (inactive)
[7]
  AC50: 20.9 µM (active)
[9]
  AC50: 24.3 µM (active)

## CC1CCN(CCc2nc3cc(NS(=O)(=O)c4ccccc4)ccc3n2C)CC1
Paired box protein Pax-8
  AC50: 12.1 µM (active)

## CCOC(=O)C1=C(CNCCc2ccc(Cl)cc2)NC(=O)NC1c1ccc2c(c1)OCO2 (stereo not drawn)
[12]
  EC50: > 60 µM (not active)
[13]
  EC50: 13.3 µM (active)
[3]
  IC50: > 50 µM (not active)

## O=C(NCc1cccc(Cl)c1)c1ccc2c(c1)SC1=NS(=O)(=O)CCN12
[3]
  IC50: 14.8 µM (not active)

## CC(C)(C)NC(=O)c1cc(C(C)(C)C)c(O)c(C(C)(C)C)c1
[3]
  IC50: 3.38 µM (not active)

## CCNS(=O)(=O)c1ccc(NC(=O)c2cccnc2)cc1
[1]
  EC50: > 112 µM (not active)
[14]
  EC50: > 38 µM (not active)
[15]
  EC50: > 160 µM (inactive)
[2]
  EC50: > 112 µM (not active)

## O=C(C[C@H]1CC[C@@H]2[C@H](COC[C@@H](O)CN2Cc2ccc(F)cc2)O1)NCc1ccccc1Cl
Paired box protein Pax-8
  AC50: 41.2 µM (active)

## COc1cccc(NP(=O)(Oc2ccccc2)Oc2ccccc2)c1
[4]
  EC50: > 120 µM (not active)
[6]
  EC50: > 120 µM (not active)
[10]
  AC50: 0.935 µM (active)
[8]
  EC50: 59.4 µM (active)

## COCCCNC(=O)Cn1c(=O)n(CCCCCC(=O)Nc2ccccc2)c(=O)c2sccc21
[1]
  EC50: > 112 µM (not active)
[2]
  EC50: > 112 µM (not active)

## O=C(CSc1ncc(C(F)(F)F)cc1Cl)N1CCN(S(=O)(=O)c2ccc(Cl)cc2)CC1
[3]
  IC50: 4.37 µM (not active)

## CC(Sc1ccccc1)C(=O)Nc1ccccc1C(=O)N1CCOCC1 (stereo not drawn)
[1]
  EC50: > 112 µM (not active)
[2]
  EC50: > 112 µM (not active)

## O=C1Nc2ccccc2C1=Nc1ccc2[nH]c3ccccc3c2c1
[11]
  IC50: 16.6 µM (active)

## COc1ccc(C(=O)Nc2cccc(C)c2)cc1
[1]
  EC50: 16.1 µM (active)
[2]
  EC50: 7.08 µM (active)

## COc1cc(/C=C/C(=O)OCC(=O)Nc2c(C)n(C)n(-c3ccccc3)c2=O)ccc1O
[11]
  IC50: 63.9 µM (active)

## COc1cc(/C=N/NC(=O)C(C)Nc2nnc(O)nc2O)ccc1O (stereo not drawn)
[11]
  IC50: 57.2 µM (active)
